# Test results as given in US20230000813A1, “COMPOUND FOR THE TREATMENT OF BOVINE OR SWINE RESPIRATORY DISEASE” (Intervet Inc., priority 2016, published 2023).
# “And” between values parts separate entries of the source, which are not always exact repeats. Identical values can stand only once. Marks after values point to notes of the source that are not given here.
# Legend:
# [1] = system: M. haemolytica M7/2, serotype A:1, ID 6357; test: Mannheimia haemolytica cattle lung infection model, efficacy (Example 8); assay type: in vivo, Holstein black pied cattle calves; parameters: key to General behavior, score: 0 = normal; 1 = slightly depressive; 2 = moderately depressive; 3 = highly depressive; 4 = recumbency; key to Re-isolation of bacteria, Left Bronchial swab / Re-isolation of bacteria, Right Bronchial swab: − no bacterial growth; + low; ++ medium; +++ high amount of bacterial growth; details: for Food consumption, cumulated for all animals in the group: 3 calves; for Lung score (including grade and percent Lung consolidation): grade of consolidation 0 to 3
# Protocol: 15 male Holstein black pied cattle calves of ca. 4 months age were randomly assigned to the study groups ensuring an equal distribution of body weight. The animal weight was approximately 98-133.5 kg on D-1.
# Calves were infected on Day 0 via intratracheal instillation of approximately 300 mL of a M. haemolytica PBS suspension containing approximately 3×10^9 CFU M. haemolytica in late log phase.
# Three animals each were treated one hour after infection by subcutaneous (SC) administration of Compound 329 in an aqueous 30% (w/v) Captisol® solution for injection at a dose of 10 mg/kg BW.
# The respective dose volume was injected on the sides of the thoracic wall. Injection volumes exceeding 10 mL were divided into one portion of 10 mL administered to the left side and the remaining rest administered at different injection sites on the other side. Animals in one control group were treated with a commercially available Enrofloxacin solution (Baytril ® 10%, Bayer Animal Health) at the recommended dose of 10 mg/kg BW. The second control group was treated with the galenic diluent (30% (w/v) Captisol®, dissolved in water) as placebo.
# Food consumption was measured. Single individual blood samples were collected from the 12 animals at the following time points: D-1 (predose), 30 minutes, 2, 4, 6, 24 h and at D2 (ca. 45 h) after administration. After the day 2 blood sampling, the infected cattle were slaughtered. The lungs were weighted. Lung states and lung scores were observed morphologically.
# At necropsy from animals treated with test items or the positive control, samples of epithelial lining fluid (ELF), lung tissue, and additionally tissue of liver and kidney were collected. From each lung two bacteriological swaps were taken from the left and right bronchus.
# From each lung two tissue samples were collected by clipping from at least two locations, one from morphologically unchanged tissue, one from the edge of pathomorphologically changed areas.
# [2] = system: Mannheimia haemolytica MH 13093 (XB0472-6014.1, BRD field isolate); test: MIC, broth-microdilution (CLSI VET01-A4); assay type: cell-based
# Procedure, shortened: (§1)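 MIC read by eye as lowest compound concentration without visible growth (no turbidity), interpreted per CLSI VET01-S3. Doubling-dilution broth-microdilution trays, run according to CLSI VET01-A4.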
# [3] = system: Mannheimia haemolytica MH 13065 (XB0446-6003.9, BRD field isolate); test: MIC, broth-microdilution (CLSI VET01-A4); assay type: cell-based
# Procedure, shortened: as §1
# [4] = system: Mannheimia haemolytica MH 12180 (KLI-02944, BRD field isolate); test: MIC, broth-microdilution (CLSI VET01-A4); assay type: cell-based; details: strain MH 12180
# Protocol: (§2) The Minimum inhibitory concentrations (MIC) of compounds according to the invention were determined by the broth-microdilution method according to CLSI document VET01-A4.
# (§3) Microdilution trays containing a doubling dilution series of the test compound were used for the tests.
# (§4) The MIC results were interpreted according to the CLSI documents VET01-S3. The lowest concentration of compound at which no visible growth (i.e. no turbidity) detected by the unaided eye was recorded as the MIC.
# [5] = system: Acinetobacter baumanii AB 15919 (IV369-2012, dermatitis field isolate); test: MIC, broth-microdilution (CLSI VET01-A4); assay type: cell-based; details: strain AB 15919
# Protocol: as §2, §3, §4
# [6] = system: Acinetobacter baumanii AB 16496 (ATCC 19606, reference strain); test: MIC, broth-microdilution (CLSI VET01-A4); assay type: cell-based; details: strain AB 16496
# Protocol: as §2, §3, §4
# [7] = system: Pasteurella multocida PM 14426 (0006-439, BRD field isolate, macrolide-resistant); test: MIC, broth-microdilution (CLSI VET01-A4); assay type: cell-based; details: strain PM 14426, macrolide-resistant
# Protocol: as §2, §3, §4
# [8] = system: Staphylococcus aureus SA 6114 (ATCC 29213, reference strain); test: MIC, broth-microdilution (CLSI VET01-A4); assay type: cell-based; details: strain SA 6114
# Protocol: as §2, §3, §4
# [9] = system: Staphylococcus aureus SA 5816 (2139, mastitis field isolate); test: MIC, broth-microdilution (CLSI VET01-A4); assay type: cell-based; details: strain SA 5816
# Protocol: as §2, §3, §4
# [10] = infected calves, SC 10 mg/kg, in words
# [11] = section on day 2, infected calves, SC 10 mg/kg, individual animals and mean, 10 mg/kg
# [12] = section on day 2, infected calves, SC 10 mg/kg, individual animals and mean, 10 mg/kg, mean
# [13] = section on day 2, infected calves, SC single 10 mg/kg, individual animals
structure (smiles),measurement,setting,value
CC(C)(N)C(NC(=O)c1ccc(C#Cc2ccc(CNC3CC3)cc2)cc1)C(=O)NO (centres unmarked) [C. 329],"General behavior, score","[1]; D 0 am (before infection), calves, SC 10 mg/kg, individual animals and mean, 10 mg/kg",0
same,"General behavior, score","[1]; D 0 am (before infection), calves, SC 10 mg/kg, individual animals and mean, 10 mg/kg, mean",0.0 score
same,"Food consumption, cumulated for all animals in the group","[1]; D 0 am, after infection and treatment, SC 10 mg/kg",470 g
same,"Food consumption, cumulated for all animals in the group","[1]; D 0 pm, SC 10 mg/kg",1800** g
same,"General behavior, score","[1]; D 0 pm, calves infected with M. haemolytica, SC 10 mg/kg 1 h after infection, individual animals and mean, 10 mg/kg",2 and 1 (2×)
same,"General behavior, score","[1]; D 0 pm, calves infected with M. haemolytica, SC 10 mg/kg 1 h after infection, individual animals and mean, 10 mg/kg, mean",1.3 score
same,"General behavior, score","[1]; D 1 am, calves infected with M. haemolytica, SC 10 mg/kg 1 h after infection, individual animals and mean, 10 mg/kg",1 and 0 (2×)
same,"General behavior, score","[1]; D 1 am, calves infected with M. haemolytica, SC 10 mg/kg 1 h after infection, individual animals and mean, 10 mg/kg, mean",0.3 score
same,"General behavior, score","[1]; D 1 pm, calves infected with M. haemolytica, SC 10 mg/kg 1 h after infection, individual animals and mean, 10 mg/kg",1 (2×) and 0
same,"General behavior, score","[1]; D 1 pm, calves infected with M. haemolytica, SC 10 mg/kg 1 h after infection, individual animals and mean, 10 mg/kg, mean",0.7 score
same,"General behavior, score","[1]; D 2 am, calves infected with M. haemolytica, SC 10 mg/kg 1 h after infection, individual animals and mean, 10 mg/kg",0
same,"General behavior, score","[1]; D 2 am, calves infected with M. haemolytica, SC 10 mg/kg 1 h after infection, individual animals and mean, 10 mg/kg, mean",0.0 score
same,"Food consumption, cumulated for all animals in the group","[1]; D +1 am, SC 10 mg/kg",4800 g
same,"Food consumption, cumulated for all animals in the group","[1]; D +1 pm, SC 10 mg/kg",4800 g
same,"Food consumption, cumulated for all animals in the group","[1]; D −1 (before infection), SC 10 mg/kg",4800 g
same,general behavior and food uptake,[1]; [10],comparable to the positive control
same,mean bacterial re-isolation,[1]; [10],Very low
same,Lung score (including grade and percent Lung consolidation),[1]; [11],32.4 and 29.5 and 37.7
same,Lung score (including grade and percent Lung consolidation),[1]; [12],33.2
same,Lung consolidations,[1]; [11],20.9% and 14.8% and 21.6%
same,Lung weight,[1]; [11],1717 g and 1549 g and 1583 g
same,Lung/body weight ratio,[1]; [11],~1.3% and 1.36% and 1.30% and 1.41%
same,Lung consolidations,[1]; [12],19.1%
same,Lung weight,[1]; [12],1616 g
same,"Re-isolation of bacteria, Left Bronchial swab",[1]; [13],−
same,"Re-isolation of bacteria, Right Bronchial swab",[1]; [13],−
same,efficacy in the lung model infection with M. haemolytica in calves,"[1]; single SC treatment with 10 mg/kg BW, conclusion in words",good efficacy
same,MIC,[2],1.6 µM
same,MIC,[3],0.8 µM
same,MIC,[4],0.5 µg/mL
same,MIC,[5],16 µg/mL
same,MIC,[6],>16 µg/mL
same,MIC,[7],≤0.016 µg/mL
same,MIC,[8],>16 µg/mL
same,MIC,[9],>16 µg/mL
